Assay results: patent US20250230155A1 (Vanderbilt University, priority 2021, published 2025)

Molecular target: T1, human mAChR M4 (Homo sapiens, UniProt P08173)
T1 construct: expressed in transfected cells
T1 sequence (P08173 1-479): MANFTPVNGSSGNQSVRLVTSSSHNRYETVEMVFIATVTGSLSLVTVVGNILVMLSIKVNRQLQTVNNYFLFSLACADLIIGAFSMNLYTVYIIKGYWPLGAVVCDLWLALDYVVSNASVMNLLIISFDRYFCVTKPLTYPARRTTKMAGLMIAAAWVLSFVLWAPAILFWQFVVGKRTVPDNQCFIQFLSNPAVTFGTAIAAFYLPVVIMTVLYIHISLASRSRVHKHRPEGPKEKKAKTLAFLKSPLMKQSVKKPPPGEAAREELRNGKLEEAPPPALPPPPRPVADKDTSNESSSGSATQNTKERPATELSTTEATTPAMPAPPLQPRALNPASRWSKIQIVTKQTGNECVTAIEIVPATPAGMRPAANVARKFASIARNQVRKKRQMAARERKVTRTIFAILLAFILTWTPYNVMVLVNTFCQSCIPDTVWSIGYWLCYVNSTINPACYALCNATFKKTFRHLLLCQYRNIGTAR
Test: mAChR M4 cell-based functional assay (calcium mobilization, CHO-K1 hM4-Gqi5 cells)
Conditions: for Emax at 30 µM: CHO-K1, % ACh maximum at 30 μM, human M4; for EC50: positive allosteric modulator activity, increase in the EC20 acetylcholine response, CHO-K1 hM4-Gqi5 cells, read-out: Human M4 EC50
Procedure, shortened: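 Fluorescent calcium read-out (Fluo-4 AM, FDSS, 1 Hz) in hM4-Gqi5 CHO-K1 cells, 11-point 1:3 compound series. Agonism scored on compound addition, PAM activity as increase of the 144 s EC20 acetylcholine response, antagonism as decrease of the 230 s EC80 response; four-parameter logistic fits give EC50 and Emax.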

| SMILES | Emax at 30 µM [%] | EC50 [nM] | Emax (CHO-K1) [%] |
| --- | --- | --- | --- |
| COc1cc(-c2cnc3c(c2)CN(c2nnc(C#N)c(C)c2C)CC3)ccn1 [compound 76, 6-[3-(2-methoxy-4-pyridyl)-7,8-dihydro-5H-1,6-naphthyridin-6-yl]-4,5-dimethyl-pyridazine-3-carbonitrile] | 76 | 1490 | – |
| Cc1cc(C(=O)N2CC(Cl)C2)nnc1N1CCc2ncc(N3CCCn4nccc43)cc2C1 [Example 527, (3-chloroazetidin-1-yl)(6-(3-(6,7-dihydropyrazolo[1,5-a]pyrimidin-4(5H)-yl)-7,8-dihydro-1,6-naphthyridin-6(5H)-yl)-5-methylpyridazin-3-yl)methanone] | 129 | 16 | – |
| Cc1c(C#N)nnc(N2CCc3ncc(-c4cccnc4F)cc3C2)c1C [compound 54, 6-[3-(2-fluoro-3-pyridyl)-7,8-dihydro-5H-1,6-naphthyridin-6-yl]-4,5-dimethyl-pyridazine-3-carbonitrile] | 70 | 391 | – |
| Cc1cc(C(=O)N2CCC2c2ccccc2)nnc1N1CCc2ncc(N3CCCn4nccc43)cc2C1 (centres unmarked) [Example 557, (6-(3-(6,7-dihydropyrazolo[1,5-a]pyrimidin-4(5H)-yl)-7,8-dihydro-1,6-naphthyridin-6(5H)-yl)-5-methylpyridazin-3-yl)(2-phenylazetidin-1-yl)methanone] | 91 | 166 | – |
| [2H]C([2H])([2H])c1cnc2c(c1)CN(c1nnc(C(=O)N3CC4(COC4)C3)cc1C)CC2 [Example 577, (5-methyl-6-(3-(methyl-d3)-7,8-dihydro-1,6-naphthyridin-6(5H)-yl)pyridazin-3-yl)(2-oxa-6-azaspiro[3.3]heptan-6-yl)methanone] | 70 | 109 | – |
| Cc1cc(C(=O)NCc2nc3ccccc3s2)cnc1N1CCc2ncccc2C1 [compound 125, N-(1,3-benzothiazol-2-ylmethyl)-6-(7,8-dihydro-5H-1,6-naphthyridin-6-yl)-5-methyl-pyridine-3-carboxamide] | 78 | 856 | – |
| Cc1cc(C(=O)N2CC(Cl)C2)nnc1N1CCc2ncc(-n3cccn3)cc2C1 [Example 532, (6-(3-(1H-pyrazol-1-yl)-7,8-dihydro-1,6-naphthyridin-6(5H)-yl)-5-methylpyridazin-3-yl)(3-chloroazetidin-1-yl)methanone] | 90 | 78 | – |
| Cc1cc(C#N)cnc1N1CCc2ncc(N3CCCc4ncccc43)cc2C1 [Example 362, 6-(3-(3,4-dihydro-1,5-naphthyridin-1(2H)-yl)-7,8-dihydro-1,6-naphthyridin-6(5H)-yl)-5-methylnicotinonitrile] | 96 | 76 | – |
| Cc1cc(C(=O)NCc2ccncc2)cnc1N1CCc2ncc(Nc3ccnn3C)cc2C1 [Example 473, 5-methyl-6-(3-((1-methyl-1H-pyrazol-5-yl)amino)-7,8-dihydro-1,6-naphthyridin-6(5H)-yl)-N-(pyridin-4-ylmethyl)nicotinamide] | 87 | 324 | – |
| Cc1cc(C(=O)N2CC(C(C)(C)O)C2)nnc1N1CCc2ncc(N3CCCn4nccc43)cc2C1 [Example 528, (6-(3-(6,7-dihydropyrazolo[1,5-a]pyrimidin-4(5H)-yl)-7,8-dihydro-1,6-naphthyridin-6(5H)-yl)-5-methylpyridazin-3-yl)(3-(2-hydroxypropan-2-yl)azetidin-1-yl)methanone] | 102 | 53 | – |
| Cc1cc(C(=O)N2CC(F)(F)C2)nnc1N1CCc2ncc(N3CCCn4nccc43)cc2C1 [Example 544, (3,3-difluoroazetidin-1-yl)(6-(3-(6,7-dihydropyrazolo[1,5-a]pyrimidin-4(5H)-yl)-7,8-dihydro-1,6-naphthyridin-6(5/)-yl)-5-methylpyridazin-3-yl)methanone] | 105 | 45 | – |
| Cc1nc(C)c(C)c(N2CCc3ncc(-c4ccc(N5CCC5)nc4)cc3C2)n1 [compound 234, 3-(6-(azetidin-1-yl)pyridin-3-yl)-6-(2,5,6-trimethylpyrimidin-4-yl)-5,6,7,8-tetrahydro-1,6-naphthyridine] | 63 | 354 | – |
| Cc1cc(C(=O)NCc2ccc3c(c2)CC(=O)N3)cnc1N1CCc2ncccc2C1 [compound 154, 6-(7,8-dihydro-5H-1,6-naphthyridin-6-yl)-5-methyl-N-[(2-oxoindolin-5-yl)methyl]pyridine-3-carboxamide] | 47 | 6560 | – |
| Cc1cc(C(=O)N2CC(N(C)C)C2)nnc1N1CCc2ncc(N3CCCn4nccc43)cc2C1 [Example 518, (6-(3-(6,7-dihydropyrazolo[1,5-a]pyrimidin-4(5H)-yl)-7,8-dihydro-1,6-naphthyridin-6(5H)-yl)-5-methylpyridazin-3-yl)(3-(dimethylamino)azetidin-1-yl)methanone] | 102 | 32 | – |
| Cc1cc(C(=O)N2CC3(COC3)C2)nnc1N1CCc2ncc(N3CCO[C@H](C)C3)cc2C1 [Example 575, (R)-(5-methyl-6-(3-(2-methylmorpholino)-7,8-dihydro-1,6-naphthyridin-6(5H)-yl)pyridazin-3-yl)(2-oxa-6-azaspiro[3.3]heptan-6-yl)methanone] | 75 | 88 | – |
| Cc1cc(C#N)cnc1N1Cc2cc(N3CCOCC3)cnc2C(C)C1 (centres unmarked) [Example 405, 5-methyl-6-(8-methyl-3-morpholino-7,8-dihydro-1,6-naphthyridin-6(5H)-yl)nicotinonitrile] | 83 | 415 | – |
| Cc1c(C#N)nnc(N2CCc3ncc(N4CCOC(c5cccnc5)C4)cc3C2)c1C (centres unmarked) [Example 388, 4,5-dimethyl-6-(3-(2-(pyridin-3-yl)morpholino)-7,8-dihydro-1,6-naphthyridin-6(5H)-yl)pyridazine-3-carbonitrile] | 83 | 1250 | – |
| Cc1cc(C(=O)NCc2ccc[nH]2)cnc1N1CCc2ncccc2C1 [compound 163, 6-(7,8-dihydro-5H-1,6-naphthyridin-6-yl)-5-methyl-N-(1H-pyrrol-2-ylmethyl)pyridine-3-carboxamide] | 65 | 2660 | – |
| Cc1c(C#N)nnc(N2CCc3ncc(-c4cnn(CCN(C)C)c4)cc3C2)c1C [Example 324, 6-(3-(1-(2-(dimethylamino)ethyl)-1H-pyrazol-4-yl)-7,8-dihydro-1,6-naphthyridin-6(5H)-yl)-4,5-dimethylpyridazine-3-carbonitrile] | 70 | 1070 | – |
| Cc1cc(C(=O)NCc2cncs2)cnc1N1CCc2ncc(C(F)(F)F)cc2C1 [Example 443, 5-methyl-N-(thiazol-5-ylmethyl)-6-(3-(trifluoromethyl)-7,8-dihydro-1,6-naphthyridin-6(5H)-yl)nicotinamide] | 107 | 157 | – |
| Cc1cnc(F)cc1-c1cnc2c(c1)CN(c1nnc(C#N)c(C)c1C)CC2 [compound 72, 6-[3-(2-fluoro-5-methyl-4-pyridyl)-7,8-dihydro-5H-1,6-naphthyridin-6-yl]-4,5-dimethyl-pyridazine-3-carbonitrile] | 78 | 233 | – |
| Cc1c(C#N)nnc(N2CCc3ncc(-c4ccnnc4)cc3C2)c1C [compound 48, 4,5-dimethyl-6-(3-pyridazin-4-yl-7,8-dihydro-5H-1,6-naphthyridin-6-yl)pyridazine-3-carbonitrile] | 82 | 1810 | – |
| COC(=O)c1cnc(N2CCc3ncc(Br)cc3C2)c(C)c1 [compound 133, methyl 6-(3-bromo-7,8-dihydro-5H-1,6-naphthyridin-6-yl)-5-methyl-pyridine-3-carboxylate] | – | 158 | 100 |
| Cc1c(C#N)nnc(N2CCc3ncc(-c4ccc(C5CC5)nc4)cc3C2)c1C [Example 301, 6-(3-(6-cyclopropylpyridin-3-yl)-7,8-dihydro-1,6-naphthyridin-6(5H)-yl)-4,5-dimethylpyridazine-3-carbonitrile] | 57 | 265 | – |
| Cc1cc(C(=O)N2CC(C)C2)nnc1N1CCc2ncc(N3CCCn4nccc43)cc2C1 [Example 549, (6-(3-(6,7-dihydropyrazolo[1,5-a]pyrimidin-4(5H)-yl)-7,8-dihydro-1,6-naphthyridin-6(5H)-yl)-5-methylpyridazin-3-yl)(3-methylazetidin-1-yl)methanone] | 120 | 56 | – |
| Cc1cc(Nc2cnc3c(c2)CN(c2ncc(C#N)cc2C)CC3)c(F)cn1 [Example 616, 6-(3-((5-fluoro-2-methylpyridin-4-yl)amino)-7,8-dihydro-1,6-naphthyridin-6(5H)-yl)-5-methylnicotinonitrile] | 95 | 4 | – |
| Cc1cc(C#N)cnc1N1CCc2ncc(-c3cn(C)nc3C)cc2C1 [compound 103, 6-[3-(1,3-dimethylpyrazol-4-yl)-7,8-dihydro-5H-1,6-naphthyridin-6-yl]-5-methyl-pyridine-3-carbonitrile] | 95 | 158 | – |
| Cc1cc(C#N)cnc1N1CCc2ncc(-c3cnn(CC(C)C)c3)cc2C1 [compound 112, 6-[3-(1-isobutylpyrazol-4-yl)-7,8-dihydro-5H-1,6-naphthyridin-6-yl]-5-methyl-pyridine-3-carbonitrile] | 76 | 465 | – |
